Experimental data: article PMC9575645 (Signal Transduction and Targeted Therapy, 2022)

Key:
[1] = test system: Porcine sapovirus (Cowden); details: for IC50: Porcine sapovirus (Cowden), LLC-PK cells
[2] = test system: LD lipolysis (FFA and glycerol release); experiment: Intracellular FFA and glycerol quantification in SARS-CoV-2-infected Vero E6 cells; format: cell-based, African green monkey; details: SARS-CoV-2-infected cells; 20 µM at 18 hpi; vs vehicle-treated control
Experimental: (§1) Cells were grown in 6- or 12-well plates or 8-well chamber slides to the desired confluency and then washed twice with phosphate-buffered saline (PBS, pH 7.4). They were then mock-inoculated with medium only or virus-inoculated with various multiplicities of infection (MOI): MOI of 0.01 or 1 FFU/cell for IAV, and MOI of 0.01 or 0.1 FFU/cell for SARS-CoV-2, BCoV, PEDV, PRRSV, and PSaV. Thereafter, each inoculum was absorbed for 1 h, and the cells were washed twice with PBS (pH 7.4). As shown in Supplementary Table 4, further treatments and incubations varied dependent on the virus species used. […]
(§2) To determine intracellular levels of free fatty acids, the different cultured cells infected with or without the seven target RNA viruses, or treated with or without different concentrations of chemicals, and the lung samples from experimental mice and hamsters were prepared as described above. The amount of intracellular free fatty acid was determined using a quantification kit from BioVision according to the manufacturer’s recommendations.^31 Briefly, 5x10^6 cells or 100 mg of lung tissue were mixed with 500 μL of chloroform-Triton X-100 (1% Triton X-100 in pure chloroform) with vortexing at five-minute intervals for 20 min at 20°C. […]

[3] = test system: proinflammatory cytokines; experiment: Proinflammatory cytokines in IAV-infected A549 cells (RT-qPCR, ELISA); format: cell-based, human; details: 20 μM
[4] = In vivo toxicity in mice (body weight, gross and histopathological organ changes); details: for gross and histopathological changes in major organs (liver, lung, kidney, heart, spleen): 0.1, 1, or 10 mg kg^-1 d^-1 Bid for 4 consecutive days
[5] = test system: Porcine respiratory reproductive syndrome virus (LMY); details: for IC50: PRRSV (LMY), MARC-145 cells
IAV HA and M2 proteins = format: cell-based, Influenza A virus
seven target RNA viruses = experiment: Broad-spectrum antiviral effect at 1-20 µM at different treatment times (RT-qPCR, CCIF); format: cell-based; details: all target RNA viruses, treated just prior to the peak of lipase activity vs immediately after virus absorption
lipid droplets (LDs) = experiment: BODIPY lipid droplet immunofluorescence in IAV-infected A549 cells; format: cell-based, human; details: MOI = 1 FFU
Experimental: To characterize the dynamics of LD formation, apoptotic and necroptotic cells, and virus infectivity, an IFA was performed with the […], MDCK, Caco-2, Vero E6, MA104, MARC-145, LLC-PK, and HRT-18G cells, infected with or without each virus, and treated with vehicles or chemicals at the different time points (Table S3), or transfected with siRNA or scrambled siRNA as described above.^ 16^,27^,28 Briefly, cells were prepared in 8-well chamber slides infected with IAV, SARS-CoV-2, BCoV, PEDV, RVA, PRRSV, or PSaV at an MOI of 1 (IAV), or MOI of 0.1 (SARS-CoV-2, BCoV, PEDV, RVA, PRRSV, or PSaV) and treated with or without chemicals. […] Subsequently, cells were washed thrice with PBS (pH 7.4) and mounted with SlowFade Gold antifade reagent containing 1 × DAPI solution (Molecular Probes) for nucleus staining, observed with a LSM 800 confocal microscope, and analysed using Zen Blue Software 2.6 (Carl Zeiss; Jena, Germany).
The number and size of intracellular LDs were measured as described previously.^28 Briefly, four images were taken of each sample and converted into a pixel unit, and the data were processed and quantified using Adobe Photoshop CS6. […] The results were expressed as relative values, where the average number and size of pixels of positive color in virus-infected groups were normalized to those of the mock-treated, mock-infected control.

[6] = test system: LD lipolysis (FFA and glycerol release); experiment: Intracellular FFA and glycerol quantification in IAV-infected A549 cells; format: cell-based, human; details: 20 µM at 12 hpi, vs vehicle-treated control
Experimental: as §1, §2

Row | Structure (SMILES) | SI (CC50/IC50) [1] | IC50 [1] | levels of intracellular FFAs and glycerol [2] | proinflammatory cytokines IFN-α, IFN-β, TNF-α, IL-6, MCP-1 [3] | gross and histopathological changes in major organs (liver, lung, kidney, heart, spleen) [4] | overt signs of toxicity, including loss of body weight ([4]; intraperitoneal 10 mg kg^-1 d^-1) | SI (CC50/IC50) [5] | IC50 [5] | palmitoylation of IAV HA and M2 proteins (IAV HA and M2 proteins) | viral genome replication and infectious progeny production (seven target RNA viruses) | intracellular LDs (BODIPY) (lipid droplets (LDs)) | levels of intracellular FFAs and glycerol [6]
1 | CN(C)C(=O)Nc1cccc(-c2ccc(N(C)C)cc2)c1 [Atglistatin] | 72 | 3.11 ± 0.39 µM | significantly reduced | significantly reduced | no gross and histopathological changes | did not induce any overt signs of toxicity | 84 | 2.53 ± 0.18 µM | significantly inhibited | greater reduction in viral genome replication and infectious progeny production of all target RNA viruses in a dose-dependent manner | Retention of LDs | significantly reduced
2 | COc1nn(-c2ccc(NC(=O)OCc3ccccc3)c(C)c2)c(=O)o1 [CAY10499] | 9 | 11.8 ± 2.6 µM | significantly reduced | significantly reduced | no gross and histopathological changes | – | 24 | 4.21 ± 0.55 µM | significantly inhibited | greater reduction in viral genome replication and infectious progeny production of all target RNA viruses in a dose-dependent manner | Retention of LDs | significantly reduced
